# Assay results: patent US20260026499A1 (priority 2022, published 2026)
# Test system: tebuconazole-resistant Fusarium graminearum (TR)
# Assay: microbe, parasite or virus in culture
# Format: cell-based
# Details: for EC50: Fusarium graminearum, 72 h; for ATI: ZJS178 as standard reagent, TR strain
structure (smiles),measurement,value
"CC(C)(C)C(O)(CCc1ccc(Cl)cc1)Cn1cncn1 (racemic) [Tebuconazole (B), (RS)-1-p-chlorophenyl-4,4-dimethyl-3-(1H-1,2,4-triazol-1-ylmethyl)pentan-3-ol, reference compound]",EC50,1.52 µg/mL
same,ATI,2.34
"CCOC(=O)/C(C#N)=C(\N)c1ccc(N(C)CC)cc1 [ZJS178 (A), ethyl 2-cyano-3-amino-3-[4-(N-ethyl-N-methylamino)phenyl]acrylate]",EC50,0.0356 µg/mL
same,ATI,100.00
